Earlier results on 1 compound are cited in patent US20190210972A1, “METHODS OF RESOLVING RACEMIC MIXTURE TO OBTAIN (-)-HUPERZINE A” (AMPHASTAR NANJING PHARMACEUTICALS INC., priority 2014, published 2019).

The data set has as its system patients with Alzheimer's disease. Conditions: double-blind, placebo-controlled.

In the case of `C/C=C1\C2C=C(C)C[C@]1(N)c1ccc(=O)[nH]c1C2` (single isomer, unassigned; (-)) [(−)-Huperzine A], the “cognitive function and quality of life of trial participants” value is recorded as “Significant improvements”.
